Data taken from patent US9555028B2, “Drug for preventing/treating ocular disease” (JAPAN BIO PRODUCTS CO., LTD., priority 2012, dated 2017).

How the values were obtained:
Muc5ac secretion = assay: In vivo instillation, then Muc5ac secreted into culture supernatant of sampled conjunctival tissue (ELISA); set-up: species or system white rabbit; settings: 100 μM instilled 4 times per day for 3 days; tissue soaked in HBSS 1.5 and 3 hours, n=6, FIG. 4a
Protocol: In order to examine whether or not Compound 1 enhances Muc5ac secretion, in vivo experiments were carried out using white rabbits (Slc:JW/CSKSlc:NZW strain).
(§1) Specifically, the right eye of a white rabbit was subjected to instillation administration of a solution containing 100 μM of Compound 1, which had been dissolved in a physiological saline solution, at a dosage of 30 μL to 50 μL/dose 4 times per day. The left eye was subjected to instillation administration of a physiological saline solution as a control at a dosage of 30 μL to 50 μL/dose 4 times per day. For each group, the experiment was performed at n=6.
After 3 days with the above administration, each white domestic rabbit was euthanized and its conjunctival tissue was sampled using a trephine with a diameter of 5 mm. The sample was soaked in an HBSS; its culture supernatant was collected after an hour and a half; and further, after 3 hours, its culture supernatant and conjunctival tissue were collected. The amount of Muc5ac included in the culture supernatant was quantified using the same ELISA assay as in Example 1.

[1] = system: Muc5ac secretion from conjunctival tissue; assay: Ex vivo Muc5ac secretion from conjunctival tissue, culture supernatant quantified by ELISA; type: cell-based, white rabbit; settings: for amount of Muc5ac in culture supernatant in the presence of Compound 1: n=5, FIG. 1(b)
Protocol: In order to examine an effect of Compound 1 on an amount of Muc5ac secretion, ex vivo experiments were carried out using a conjunctival tissue from a white rabbit (Slc:JW/CSKSlc:NZW strain).
Specifically, a trephine with a diameter of 3 mm was used to sample a conjunctival tissue from a white rabbit. Next, the tissue sample was soaked in an HBSS containing 100 μM of Compound 1 for 90 minutes, 3 hours, 6 hours, or 12 hours. The conjunctival tissue of the control group was soaked in an HBSS having a physiological saline with a volume equal to that of Compound 1. After the conjunctival tissue was soaked for a predetermined time, its culture supernatant was collected. For each group, the experiment was performed at n=5.
The amount of Muc5ac included in the culture supernatant was detected using the following assay.
Assay for Muc5ac Secretion (ELISA Assay)
First, the culture supernatant of the conjunctival tissue of the control group was diluted using an HBSS, and a standard curve was prepared at a Muc5ac concentration of 500, 250, 125, 62.5, 31.25, 15.63, and 7.81 AU/mL (AU represents an arbitrary unit). The sample solutions were diluted with an HBSS in such a manner that absorbance at a wavelength of 450 nm was fitted within a range of the absorbance of the standard curve at a wavelength of 450 nm. Next, the solutions for the standard curve, the sample solutions for the test group, and the sample solutions for the control group were added to a 96-well microplate (#3590, manufactured by Corning Incorporated) at 100 μL/well, and were incubated overnight at 40° C. For each sample, the measurement was performed at n=2.
After the solutions for the standard curve and the sample solutions were removed, 200 μL of washing buffer was used to wash the wells three times. The washing buffer (hereinafter, also referred to as a TBST solution) was prepared by adding Tween-20 at a final concentration of 0.05% to Tris buffered saline (pH 7.6).
Then, 200 μL of blocking buffer (1% bovine serum albumin-containing TBST solution) was added to each well, and the plate was incubated at room temperature for 1 hour. After the blocking buffer had been removed, a primary antibody (an anti-human Muc5ac antibody, manufactured by NeoMarkers, Inc.; Clone 45M1) solution, which was 100-fold diluted with the blocking buffer, was added to the plate at 100 μL/well, and the plate was incubated at room temperature for 1 hour. After the primary antibody solution was removed, 200 μL of the washing buffer was used to wash the wells three times.
Then, a secondary antibody (an HRP-labelled sheep anti-mouse IgG antibody, manufactured by GE Healthcare, Inc.) solution, which was 2000-fold diluted with the blocking buffer, was added to the plate at 100 μL/well, and the plate was incubated at room temperature for 1 hour. After the secondary antibody solution was removed, 200 μL of the washing buffer was used to wash the wells three times.
In order to quantify the Muc5ac content in each sample, 100 μL of 3,3′,5,5′-tetramethylbenzidine was added to each well and the plate was incubated for coloring at room temperature for 30 minutes; and then 100 μL of 0.5 M sulfuric acid solution was added to each well to stop the reaction. Next, a microplate reader was used to measure the absorbance of each well at a wavelength of 450 nm. The Muc5ac content in each sample was calculated using the standard curve. […]
The amount of Muc5ac included in the culture supernatant was detected using the same ELISA assay as in Example 1.

[2] = system: corneal epithelial tissue wound; assay: Wound healing effect on corneal epithelial tissue in vivo (fluorescein staining, wound area); set-up: species or system white rabbit; settings: 100 μM solution instilled 30-50 μL/dose 4 times per day
Protocol: In order to examine an wound healing effect of Compound 1 on an corneal epithelial tissue, in vivo experiments were carried out using white rabbits (Slc:JW/CSKSlc:NZW strain).
Specifically, a trephine with a diameter of 8 mm was used to create a wound on a corneal epithelial tissue of a white rabbit. From the day of creating the wound, the test group was subjected to instillation administration of a solution containing 100 μM of Compound 1, which had been dissolved in a physiological saline solution, at a dosage of 30 μL to 50 μL/dose 4 times per day. The control group was subjected to instillation administration of a physiological saline solution at a dosage of 30 μL to 50 μL/dose 4 times per day. For each group, the experiment was performed at n=5.
In order to determine the area of the wound on the corneal epithelial tissue, a physiological saline solution and a fluorescein test paper were used to perform fluorescein staining of the corneal epithelial tissue; and a time course change in the area of the wound on the corneal epithelium was observed while its photographs were taken. The wound area was image-processed using Image J software and was statistically analyzed.

[3] = system: Muc5ac protein in conjunctival tissue; assay: In vivo instillation, then amount of Muc5ac protein in conjunctival tissue lysate (ELISA); set-up: species or system white rabbit; settings: 100 μM instilled 4 times per day for 3 days; tissue lysate at 500 ng/μL protein, FIG. 4b
Protocol: as §1
After 3 days with the above administration, each white domestic rabbit was euthanized and its conjunctival tissue was sampled using a trephine with a diameter of 5 mm. […] The amount of Muc5ac included in the culture supernatant was quantified using the same ELISA assay as in Example 1.
Meanwhile, 150 μL of SDS(−) RIPA lysis buffer (manufactured by Nacalai Tesque, Inc.) was added to the conjunctival tissue collected, and the tissue was soaked and incubated at 4° C. for 30 minutes, followed by homogenization. […] After a protein concentration was measured using Nano Drop (manufactured by Thermo Scientific, Inc.), the protein concentration was adjusted to 500 ng/μL. Subsequently, the amount of Muc5ac included in the protein solution prepared was quantified using the same ELISA assay as in Example 1.

[4] = system: Muc5ac in conjunctival tissue; assay: In vivo instillation, then PAS staining of conjunctival tissue sections; set-up: species or system white rabbit; settings: 100 μM instilled 4 times per day, FIG. 5
Protocol: as §1
Further, the conjunctival tissues from the control group and the administration group were subjected to PAS staining, which stains neutral polysaccharides and glycoproteins. Specifically, a conjunctival tissue was collected from a rabbit; the conjunctive tissue collected was cut into regions at the upper, nasal, lower, and ear sides; and paraffin sections were prepared. Next, after washed with distilled water for deparaffinization, the sections were immersed in 3% acetic acid aqueous solution and soaked in an alcian blue solution for 30 minutes. After washed with distilled water, the sections were soaked in 1% periodic acid aqueous solution for 10 minutes, washed with running water for 5 minutes, and washed with distilled water. After soaked in a cold Schiff reagent for 10 minutes, the sections were soaked in sulfurous acid solution for 3 minutes and subjected to sulfurous acid solution treatment. […]

O=C1NC(CO)C(=O)N2CC(O)CC12 [Compound 1, cyclo-trans-4-L-hydroxyprolyl-L-serine]
amount of Muc5ac in culture supernatant of conjunctival tissue compared with control group (Muc5ac secretion): remarkably high | amount of Muc5ac in culture supernatant, concentration dependence ([1]; 0, 1, 10 or 100 μM, soaked 6 hours, n=5, FIG. 2): increased depending on the concentration | difference in the amount of Muc5ac between presence and absence of Compound 1, across culture times ([1]; 100 μM in HBSS, at 6 hours of culturing): most prominent | amount of Muc5ac in culture supernatant compared with absence of Compound 1 ([1]; 100 μM in HBSS, cultured 3 hours, n=5, FIG. 1(a)): increased | amount of Muc5ac in culture supernatant in the presence of Compound 1 ([1]; 100 μM in HBSS, cultured 6 hours): increase | amount of Muc5ac in culture supernatant in the presence of Compound 1 ([1]; 100 μM in HBSS, cultured 12 hours): increase | wound area of corneal epithelium versus control group ([2]; from Day 1, t-test p<0.01, FIG. 3): smaller | time required for complete cure of the wound ([2]; control group 5 days): 4 days | amount of Muc5ac protein in the conjunctival tissue versus control group [3]: approximately equal | amount of Muc5ac (stained red-purple) in the conjunctival tissue by PAS staining versus control group [4]: apparently lower
